Laboratory results: patent publication US20220287995A1, “COMPOSITIONS AND METHODS FOR INHIBITING BACTERIAL VIRULENCE AND FLIM-BASED DEVICE AND METHOD FOR ANTIBIOTIC SUSCEPTIBILITY TESTING” (THE REGENTS OF THE UNIVERSITY OF CALIFORNIA, priority 2019, published 2022)

Tested on: P. aeruginosa
Test: Surface density measurement of P. aeruginosa from virulence assays
Assay type: cell-based, Pseudomonas aeruginosa
Conditions: virulence assays after 6 hours of growth, carbon source 0.2%
Method: The density of P. aeruginosa cells on surface was measured as described previously (1) using amoebae cell viability phase contrast images that were acquired using a 10× or 20× objective. The IJ_Isodata algorithm (ImageJ 1.52q) was applied to phase contrast images to construct cell boundary masks. The cell density was computed by dividing the area covered by P. aeruginosa by the total area of the image.

SMILES: O=C(O)CC(O)(CC(=O)O)C(=O)O [citrate]
- surface density of P. aeruginosa: did not decrease the surface density
